Here are results for 2 molecules from patent US20110281947A1, “METHODS OF ADMINISTERING DICLOFENAC COMPOSITIONS FOR TREATING PHOTODAMAGED SKIN” (priority 2004, published 2011).

Molecules are shown by their SMILES.

This data set is described as follows: Topical application of NSAID with hyaluronic acid to patients: side effects and pain relief. The data set is classed as in vivo, human. The conditions noted are these: for relief of pain: patients using combination with hyaluronic acid (sodium hyaluronate). The source says: (This may be in part because of the clearing of the hyaluronic acid through the lymphatic system from the site).

Consider `O=C(O)Cc1ccccc1Nc1c(Cl)cccc1Cl` [diclofenac, Ortho-((2,6-dichlorophenyl)amino)phenylacetic acid], for which the relief of pain result is “dramatic relief of pain immediately”.
Take `COc1ccc2c(c1)c(CC(=O)O)c(C)n2C(=O)c1ccc(Cl)cc1` [indomethacin]: the relief of pain result is listed as “dramatic relief of pain immediately”. The “major toxic side effects (gastro-intestinal distress, neurological abnormalities, depression)” value (dissolved in n-methyl glucamine, applied topically with hyaluronic acid, even at elevated amounts) was “no major toxic side effects occur”.
